Patent US20260273074A1, “FERRITIN-TARGETING PROTACS AND METHODS OF INDUCING PYROPTOSIS” (Wisconsin Alumni Research Foundation, priority 2023, published 2026)

Assays:
B16F10 cells [1] = assay: Morphology observation (pyroptosis); format: cell-based, murine; conditions: 5 μM, 24 h
Protocol: Morphology observation: 5×10^4 B16F10 cells were seeded in confocal dishes and cultured for 24 h at 37° C. […] After incubation for 24 h, the cells were washed with PBS and subjected to a Nikon Eclipse Ti Intensilight fluorescence microscope in a phase contrast mode for observation.

B16F10 cells [2] = assay: ROS detection with DCFH-DA; format: cell-based, murine; conditions: 5 μM, 8 h, compared to DeFer-2epi and VHL ligand plus OA
Protocol: ROS detection: DCFH-DA was used to evaluate the generation of intracellular ROS in cancer cells. 5×10^4 B16F10 cells were seeded in confocal dishes and cultured for 24 h at 37° C. […] After incubation for 8 h, cells were stained with DCFH-DA (10 μM) for 30 min. Finally, the cells were washed with PBS and subjected to Leica SP8 Confocal WLL STED Microscope for observation.

ferritin (Mus musculus) = system: T1, ferritin (Mus musculus); assay: Western blot of ferritin expression (ferritin degradation) in B16F10 cells; format: cell-based, murine; conditions: B16F10 cells
T1 construct: ferritin expression levels in B16F10 cells were evaluated; endogenous in cells; host or cells: B16F10 (murine melanoma)
Protocol: Western blot analysis: After various treatments, ferritin expression levels in B16F10 cells were evaluated to investigate the DeFer-2-mediated ferritin degradation. Briefly, B16F10 cells were seeded in 6-well culture plates (5×10^4 cells per well) and cultured for 24 h. Then the medium in the corresponding wells except the negative control was replaced with 1 mL of medium containing ferritin degraders, albumin nanoparticles, the epimer formulations, the combination of VHL ligand and oleic acid, or the combination of the degrader and VHL ligand at the indicated concentrations. […] The lysates were centrifuged at 12,000 rpm for 10 min at 4° C., followed by quantification of the total proteins in the supernatant through the bicinchoninic acid assay (BCA) assay. Afterward, the proteins in the supernatant were mixed with the loading buffer and heated at 95° C. for 15 min. Equal amounts of proteins from different samples were loaded into 15% SDS-polyacrylamide gel (20 μg protein per lane) to separate target proteins. After separation, proteins were transferred to polyvinylidene fluoride (PVDF) membranes before the membranes were blocked with 5% nonfat milk in PBST. Then proteins were incubated with primary antibodies overnight at 4° C., followed by the incubation with the goat-anti-rabbit IgG H&L (HRP) secondary antibodies at room temperature for 2 h. Finally, the bands were detected with electrochemiluminescence (ECL) western blot substrate for imaging, and ImageJ software was used for quantification.

[3] = Solubility in the ITC buffer; format: physicochemical; conditions: 20 mM Tris-HCl pH 8.5, 130 mM NaCl, 0.05% DMSO
ferritin and VHL = molecular target: T2, ferritin and VHL (Mus musculus, UniProt P09528+P29391+P40338); assay: Co-immunoprecipitation of ferritin with anti-VHL antibody (ternary complex formation); format: cell-based, murine; conditions: B16F10 cells, 5 μM, 2 h
T2 construct: endogenous in cells; host or cells: B16F10 (murine melanoma)
T2 sequence (P09528 2-182 limits assumed): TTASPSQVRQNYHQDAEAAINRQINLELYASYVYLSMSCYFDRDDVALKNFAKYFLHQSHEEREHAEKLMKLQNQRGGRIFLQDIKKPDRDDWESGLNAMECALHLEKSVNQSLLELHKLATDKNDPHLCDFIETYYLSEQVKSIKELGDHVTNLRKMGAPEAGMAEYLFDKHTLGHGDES
T2 sequence (P29391 2-183 limits assumed): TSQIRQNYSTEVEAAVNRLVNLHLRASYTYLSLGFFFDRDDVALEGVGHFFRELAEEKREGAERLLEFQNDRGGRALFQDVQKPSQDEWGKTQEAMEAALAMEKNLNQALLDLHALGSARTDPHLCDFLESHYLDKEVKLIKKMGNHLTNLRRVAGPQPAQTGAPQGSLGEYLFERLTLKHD
T2 sequence (P40338 whole entry): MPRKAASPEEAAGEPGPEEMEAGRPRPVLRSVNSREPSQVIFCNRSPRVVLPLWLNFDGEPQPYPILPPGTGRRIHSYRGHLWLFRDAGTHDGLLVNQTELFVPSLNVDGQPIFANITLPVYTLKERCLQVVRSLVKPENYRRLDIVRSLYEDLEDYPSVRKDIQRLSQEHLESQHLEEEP
T2 sequence (P62869 whole entry partner): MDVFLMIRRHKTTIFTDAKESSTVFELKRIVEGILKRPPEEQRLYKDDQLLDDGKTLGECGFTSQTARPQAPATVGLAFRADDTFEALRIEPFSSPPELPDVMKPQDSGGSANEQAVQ
T2 sequence (P83940 whole entry partner): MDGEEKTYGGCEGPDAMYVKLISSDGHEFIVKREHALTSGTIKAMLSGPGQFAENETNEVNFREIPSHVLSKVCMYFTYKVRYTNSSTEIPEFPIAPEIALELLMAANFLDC
Protocol: Co-Immunoprecipitation assay: B16F10 cells were seeded in T75 cell culture flasks (2×10^6 cells per well) and cultured for 24 h. […] After incubation for 2 h, cells were washed with cold PBS and lysed on ice with IP lysis buffer (50 mM Tris-HCl, pH 7.4; 150 mM NaCl; 2 mM EDTA; 1% NP-40) containing phenylmethylsulfonyl fluoride (PMSF, 1 mM) and the phosphatase inhibitor cocktail for 30 min. The lysates were collected and centrifuged at 10,000 g for 10 minutes at 4° C. On the one hand, 10 μL of lysate supernatants were saved as the input samples. On the other hand, 25 μL of magnetic beads was added to each supernatant in microcentrifuge tubes, and the resulting mixtures were incubated at 4° C. with gentle rotation for 30 min. Next, the sample-containing tube was placed on a magnetic rack for 1 minute, and the supernatant was transferred into a new microcentrifuge tube placed on ice, serving as the precleared samples. The total proteins in the precleared samples were quantified through the BCA assay. Each precleared lysate was added an appropriate amount of mouse monoclonal IgG1 κ anti-VHL antibody (sc-135657, Santa Cruz Biotechnology) and then incubated at 4° C. for 2 hours with gentle rotation. After that, the pre-washed magnetic bead (equal to 25 μL of magnetic beads) was added to each sample. The resulting mixtures were incubated at room temperature for 1 h with gentle rotation. […]

B16F10 cells [4] = assay: Determination of intracellular free iron content; format: cell-based, murine; conditions: 5 μM, 8 h
Protocol: Determination of free iron content: Here, the focus was on detecting the intracellular free iron ions rather than protein-bound iron contents. The procedures for sample preparation were based on a previously reported method. B16F10 cells were seeded in T75 cell culture flasks (2×10^6 cells per well) and cultured for 24 h. […] After incubation for 8 h, cells were harvested and resuspended in 1 mL PBS. Besides, 800 μL of PBS cell suspension was subjected to centrifugation, and 780 μL of the supernatant was carefully removed. Afterward, 280 μL of ultrapure water was added to the cell precipitate. Following shaking at horizontal rotators for 12 h, the supernatant was transferred into 30 KDa ultrafiltration centrifuge tube after twice centrifugation at 2,000 g for 20 min. […] The lysates were centrifuged at 12,000 rpm for 10 min at 4° C., followed by quantification of the total proteins in the supernatant through the BCA assay.
As for iron content determination, 200 μL of the abovementioned filtrates were collected and treated with 10 μL of hydrochloric acid solution (6 mol/L), 100 μL of acetic acid-sodium acetate buffer (pH=4.5), 10 μL of 10% aqueous hydroxylamine hydrochloride, and 100 μL of o-phenanthroline (1 mg/mL). […] The iron ion content could be calculated according to the standard curve. […]

CCCCCCCCC=CCCCCCCCC(=O)NCCCC(=O)NC(C(=O)N1CC(O)CC1C(=O)NCc1ccc(-c2scnc2C)cc1)C(C)(C)C (stereo not drawn) [DeFer-2]
morphology of dying cells (B16F10 cells [1]): obvious swelling and characteristic membrane blebbing
ROS level (B16F10 cells [2]): sharp rise in the ROS level
ferritin expression over time (ferritin (Mus musculus); 0.5 μM, 0-24 h): reduced the ferritin expression in a time-dependent manner
ferritin degradation (ferritin (Mus musculus); 0.5 μM, 12 h (FIG. 5A)): successfully induced the ferritin degradation
degradation capacity compared among the three PROTACs (ferritin (Mus musculus); 0.5 μM, different time points): most potent degradation capacity with a longer duration of action
maximum ferritin degraded (ferritin (Mus musculus); 5 μM, 12 h): 58%
solubility in the ITC buffer [3]: relatively low solubility
ferritin co-precipitated with VHL (ferritin and VHL): could induce ferritin co-precipitated with VHL
intracellular free iron content (B16F10 cells [4]): significant elevation
